In patent US7507729B2, “Substituted imidazo-[1,5-a][1,2,4]triazolo[1,5-d][1,4] benzodiazepine derivatives” (priority 2005, dated 2009):
Where a name gives a salt, the structure may show the parent alone. Read-outs that look alike come from different tables or passages of the source.

Key:
[1] = target: T1, GABA A receptor α5β3γ2 (hα5) (Homo sapiens, UniProt P18507+P31644); assay: [3H]flumazenil competition binding, membranes of HEK293 cells expressing human GABA A α5β3γ2
T1 construct: expressed in transfected cells; host or cells: HEK293, transiently transfected; membranes
Method: (§1) The affinity of compounds at GABA A receptor subtypes was measured by competition for [^3H]flumazenil (85 Ci/mmol; Roche) binding to HEK293 cells expressing rat (stably transfected) or human (transiently transfected) receptors of composition α1β3γ2, α2β3γ2, α3β3γ2 and α5β3γ2.
(§2) Cell pellets were suspended in Krebs-tris buffer (4.8 mM KCl, 1.2 mM CaCl2, 1.2 mM MgCl2, 120 mM NaCl, 15 mM Tris; pH 7.5; binding assay buffer), homogenized by polytron for ca. 20 sec on ice and centrifuged for 60 min at 4° C. (50000 g; Sorvall, rotor: SM24=20000 rpm). The cell pellets were resuspended in Krebs-tris buffer and homogenized by polytron for ca. 15 sec on ice. Protein was measured (Bradford method, Bio-Rad) and aliquots of 1 mL were prepared and stored at −80° C.
(§3) Radioligand binding assays were carried out in a volume of 200 μL (96-well plates) which contained 100 μL of cell membranes, [^3H]flumazenil at a concentration of 1 nM for α1, α2, α3 subunits and 0.5 nM for α5 subunits and the test compound in the range of 10^−10-3×10^−6 M.
(§4) Nonspecific binding was defined by 10^−5 M diazepam and typically represented less than 5% of the total binding. Assays were incubated to equilibrium for 1 hour at 4° C. and harvested onto GF/C uni-filters (Packard) by filtration using a Packard harvester and washing with ice-cold wash buffer (50 mM Tris; pH 7.5). After drying, filter-retained radioactivity was detected by liquid scintillation counting. Ki values were calculated using Excel-Fit (Microsoft) and are the means of two determinations.

[2] = target: T2, GABA A receptor α1β3γ2 (hα1) (Homo sapiens, UniProt P14867+P18507); assay: [3H]flumazenil competition binding, membranes of HEK293 cells expressing human GABA A α1β3γ2
T2 construct: expressed in transfected cells; host or cells: HEK293, transiently transfected; membranes
Method: as §1, §2, §3, §4

[3] = [3H]flumazenil 1 nM, 1 hour at 4° C., means of two determinations, read-out: Ki[nM] hα1
[4] = [3H]flumazenil 0.5 nM, 1 hour at 4° C., means of two determinations, read-out: Ki[nM] hα5

Molecule | Ki [1] | Ki [2, 3] | Ki [1, 4] | Ki [2]
Cc1ncn2c1Cn1nc(Cn3ncccc3=O)nc1-c1cc(Br)ccc1-2 [Example 330, 3-Bromo-10-methyl-6-(6-oxo-6H-pyridazin-1-ylmethyl)-9H-imidazo[1,5-a][1,2,4]triazolo[1,5-d][1,4]benzodiazepine hydrochloride (1:1)] | 0.7 nM | 134 nM | – | –
Cc1cc(Cc2nc3n(n2)Cc2c(C)ncn2-c2ccc(Br)cc2-3)on1 [Example 123, 3-Bromo-10-methyl-6-(3-methyl-isoxazol-5-ylmethyl)-9H-imidazo[1,5-a][1,2,4]triazolo[1,5-d][1,4]benzodiazepine] | 0.6 nM | 188 nM | – | –
Ethyl 3-bromo-6-methoxymethyl-9H-imidazo[1,5-a][1,2,4]triazolo[1,5-d][1,4]benzodiazepine-10-carboxylate [Example 38] | – | 6.9 nM | 0.4 nM | –
Cc1ncn2c1Cn1nc(Cc3ccccn3)nc1-c1ccccc1-2 [Example 261, 10-Methyl-6-(pyridine-2-ylmethyl)-9H-imidazo[1,5-a][1,2,4]triazolo[1,5-d][1,4]benzodiazepine] | – | – | 0.7 nM | 26.6 nM
O=C(Cc1nc2n(n1)Cc1c(Cl)ncn1-c1ccc(Br)cc1-2)NC1CCCC1 [Example 61, 3-Bromo-10-chloro-6-cyclopentylcarbamoylmethyl-9H-imidazo[1,5-a][1,2,4]triazolo[1,5-d][1,4]benzodiazepine] | – | – | 0.6 nM | 91.7 nM
Clc1ccc2c(c1)-c1nc(Cn3nnc4ccccc43)nn1Cc1c(Cl)ncn1-2 [Example 22, 6-Benzotriazol-1-ylmethyl-3,10-dichloro-9H-imidazo[1,5-a][1,2,4]triazolo[1,5-d][1,4]benzodiazepine] | – | – | 0.4 nM | 53 nM
O=C1CSC(=O)N1Cc1nc2n(n1)Cc1c(Cl)ncn1-c1ccc(Br)cc1-2 [Example 309, 3-Bromo-10-chloro-6-(2,4-dioxo-thiazolidin-3-ylmethyl)-9H-imidazo[1,5-a][1,2,4]triazolo[1,5-d][1,4]benzodiazepine] | – | – | 0.5 nM | 55.2 nM
Cc1ncn2c1Cn1nc(Cn3ccnn3)nc1-c1cc(Br)ccc1-2 [Example 162, 3-Bromo-10-methyl-6-[1,2,3]triazol-1-ylmethyl-9H-imidazo[1,5-a][1,2,4]triazolo[1,5-d][1,4]benzodiazepine hydrochloride (1:1)] | – | 152 nM | – | –
Clc1ccc2c(c1)-c1nc(Cn3cccn3)nn1Cc1c(Cl)ncn1-2 [Example 13, 3,10-Dichloro-6-pyrazol-1-ylmethyl-9H-imidazo[1,5-a][1,2,4]triazolo[1,5-d][1,4]benzodiazepine] | – | – | 0.9 nM | 30.7 nM
Cc1noc(Cc2nc3n(n2)Cc2c(C)ncn2-c2ccc(Br)cc2-3)n1 [Example 349, 3-Bromo-10-methyl-6-(3-methyl-[1,2,4]oxadiazol-5-ylmethyl)-9H-imidazo[1,5-a][1,2,4]triazolo[1,5-d][1,4]benzodiazepine] | 0.9 nM | 469 nM | – | –
Clc1ccc2c(c1)-c1nc(Cn3cc4ccccc4n3)nn1Cc1c(Cl)ncn1-2 [Example 26, 3,10-Dichloro-6-indazol-2-ylmethyl-9H-imidazo[1,5-a][1,2,4]triazolo[1,5-d][1,4]benzodiazepine] | – | 111 nM | – | –
COc1ccccc1Cc1nc2n(n1)Cc1c(C)ncn1-c1ccc(Br)cc1-2 [Example 168, 3-Bromo-6-(2-methoxy-benzyl)-10-methyl-9H-imidazo[1,5-a][1,2,4]triazolo[1,5-d][1,4]benzodiazepine hydrochloride (1:1)] | – | – | – | 63.4 nM
Cc1ncn2c1Cn1nc(Cc3cccnc3)nc1-c1ccccc1-2 [Example 265, 10-Methyl-6-(pyridine-3-ylmethyl)-9H-imidazo[1,5-a][1,2,4]triazolo[1,5-d][1,4]benzodiazepine] | – | – | 0.62 nM | 39.3 nM
Cc1ncn2c1Cn1nc(Cc3ccncc3)nc1-c1ccccc1-2 [Example 267, 10-Methyl-6-(pyridine-4-ylmethyl)-9H-imidazo[1,5-a][1,2,4]triazolo[1,5-d][1,4]benzodiazepine] | – | – | 0.25 nM | 20.4 nM
CN1CCN(Cc2nc3n(n2)Cc2c(Cl)ncn2-c2ccc(Br)cc2-3)C1=O [Example 300, 3-Bromo-10-chloro-6-(3-methyl-2-oxo-imidazolidin-1-ylmethyl)-9H-imidazo[1,5-a][1,2,4]triazolo[1,5-d][1,4]benzodiazepine] | – | – | 0.7 nM | 62.1 nM
Clc1ccc2c(c1)-c1nc(Cn3nc4ccccc4n3)nn1Cc1c(Cl)ncn1-2 [Example 21, 6-Benzotriazol-2-ylmethyl-3,10-dichloro-9H-imidazo[1,5-a][1,2,4]triazolo[1,5-d][1,4]benzodiazepine] | – | 133 nM | – | –
O=C(Cc1nc2n(n1)Cc1c(Cl)ncn1-c1ccc(Br)cc1-2)NCCO [Example 65, 3-Bromo-10-chloro-6-[(2-hydroxy-ethylcarbamoyl)-methyl]-9H-imidazo[1,5-a][1,2,4]triazolo[1,5-d][1,4]benzodiazepine] | – | – | – | 149 nM
C[C@H]1CN(Cc2nc3n(n2)Cc2c(Cl)ncn2-c2ccc(Br)cc2-3)C(=O)O1 [Example 314, 3-Bromo-10-chloro-6-((5S)-5-methyl-2-oxo-oxazolidin-3-ylmethyl)-9H-imidazo[1,5-a][1,2,4]triazolo[1,5-d][1,4]benzodiazepine] | – | – | 0.7 nM | 32.3 nM
Clc1ccc2c(c1)-c1nc(Cn3nccn3)nn1Cc1c(Cl)ncn1-2 [Example 10, 3,10-Dichloro-6-[1,2,3]triazol-2-ylmethyl-9H-imidazo[1,5-a][1,2,4]triazolo[1,5-d][1,4]benzodiazepine] | – | – | 0.4 nM | 63.3 nM
Cc1cc(Cc2nc3n(n2)Cc2c(C)ncn2-c2ccc(Cl)cc2-3)ccn1 [Example 191, 3-Chloro-10-methyl-6-(2-methyl-pyridin-4-ylmethyl)-9H-imidazo[1,5-a][1,2,4]triazolo[1,5-d][1,4]benzodiazepine] | – | 266 nM | – | –
Cc1ccc(Cc2nc3n(n2)Cc2c(C)ncn2-c2ccc(Br)cc2-3)cn1 [Example 124, 3-Bromo-10-methyl-6-(6-methyl-pyridin-3-ylmethyl)-9H-imidazo[1,5-a][1,2,4]triazolo[1,5-d][1,4]benzodiazepine] | – | 219 nM | – | –
OC(c1cccnc1)c1nc2n(n1)Cc1c(Cl)ncn1-c1ccc(Br)cc1-2 (centres unmarked) [Example 58, 3-Bromo-10-chloro-6-(hydroxy-pyridin-3-yl-methyl)-9H-imidazo[1,5-a][1,2,4]triazolo[1,5-d][1,4]benzodiazepine] | – | 69.4 nM | 0.7 nM | –
Cc1ncn2c1Cn1nc(Cn3ccnn3)nc1-c1cc(Cl)ccc1-2 [Example 364, 3-Chloro-10-methyl-6-[1,2,3]triazol-1-ylmethyl-9H-imidazo[1,5-a][1,2,4]triazolo[1,5-d][1,4]benzodiazepine hydrochloride (1:1)] | – | 134 nM | – | –
Cc1ncn2c1Cn1nc(Cc3ccn[nH]3)nc1-c1ccccc1-2 [Example 380, 10-Methyl-6-(2H-pyrazol-3-ylmethyl)-9H-imidazo[1,5-a][1,2,4]triazolo[1,5-d][1,4]benzodiazepine hydrochloride (1:1)] | – | – | – | 56.6 nM
O=C1OCCN1Cc1nc2n(n1)Cc1c(Cl)ncn1-c1ccc(Br)cc1-2 [Example 50] | – | – | – | 85.7 nM
COCC1CN(Cc2nc3n(n2)Cc2c(Cl)ncn2-c2ccc(Br)cc2-3)C(=O)O1 (centres unmarked) [Example 83, 3-Bromo-10-chloro-6-(5-methoxymethyl-2-oxo-oxazolidin-3-ylmethyl)-9H-imidazo[1,5-a][1,2,4]triazolo[1,5-d][1,4]benzodiazepine] | – | 113 nM | – | –
